In PubChem BioAssay (NCI):
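Method: 48-hour compound exposure of cells in 96-well plates, five concentrations, linear interpolation of endpoints. TGI: total growth inhibition.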

Columns and labels:
Assay in all cases: DTP human tumour cell line panel, 48 h
786-0 renal = test system: 786-0 renal
A549 NSCLC = test system: A549 NSCLC
ACHN renal = test system: ACHN renal
CAKI-1 renal = test system: CAKI-1 renal
CCRF-CEM leukemia = test system: CCRF-CEM leukemia
COLO 205 colon = test system: COLO 205 colon
DLD-1 colon = test system: DLD-1 colon
DMS 114 small cell lung = test system: DMS 114 small cell lung
DMS 273 small cell lung = test system: DMS 273 small cell lung
EKVX NSCLC = test system: EKVX NSCLC
HCC-2998 colon = test system: HCC-2998 colon
HCT-116 colon = test system: HCT-116 colon
HOP-62 NSCLC = test system: HOP-62 NSCLC
HOP-92 NSCLC = test system: HOP-92 NSCLC
HT29 colon = test system: HT29 colon
IGROV1 ovarian = test system: IGROV1 ovarian
K-562 leukemia = test system: K-562 leukemia
KM12 colon = test system: KM12 colon
KM20L2 colon = test system: KM20L2 colon
LOX IMVI melanoma = test system: LOX IMVI melanoma
LXFL 529 NSCLC = test system: LXFL 529 NSCLC
M14 melanoma = test system: M14 melanoma
M19-MEL melanoma = test system: M19-MEL melanoma
MALME-3M melanoma = test system: MALME-3M melanoma
MOLT-4 leukemia = test system: MOLT-4 leukemia
NCI-H226 lung = test system: NCI-H226 lung
NCI-H23 lung = test system: NCI-H23 lung
NCI-H460 lung = test system: NCI-H460 lung
NCI-H522 lung = test system: NCI-H522 lung
OVCAR-3 ovarian = test system: OVCAR-3 ovarian
OVCAR-4 ovarian = test system: OVCAR-4 ovarian
OVCAR-5 ovarian = test system: OVCAR-5 ovarian
OVCAR-8 ovarian = test system: OVCAR-8 ovarian
RXF 393 renal = test system: RXF 393 renal
SF-268 CNS = test system: SF-268 CNS
SF-295 CNS = test system: SF-295 CNS
SF-539 CNS = test system: SF-539 CNS
SK-MEL-2 melanoma = test system: SK-MEL-2 melanoma
SK-MEL-28 melanoma = test system: SK-MEL-28 melanoma
SK-MEL-5 melanoma = test system: SK-MEL-5 melanoma
SK-OV-3 ovarian = test system: SK-OV-3 ovarian
SN12C renal = test system: SN12C renal
SNB-19 CNS = test system: SNB-19 CNS
SNB-75 CNS = test system: SNB-75 CNS
SNB-78 CNS = test system: SNB-78 CNS
SR leukemia = test system: SR leukemia
SW-620 colon = test system: SW-620 colon
TK-10 renal = test system: TK-10 renal
U251 CNS = test system: U251 CNS
UACC-62 melanoma = test system: UACC-62 melanoma
UO-31 renal = test system: UO-31 renal
XF 498 CNS = test system: XF 498 CNS
A498 renal = test system: A498 renal
HCT-15 colon = test system: HCT-15 colon
HL-60(TB) leukemia = test system: HL-60(TB) leukemia
HOP-18 NSCLC = test system: HOP-18 NSCLC
RPMI-8226 leukemia = test system: RPMI-8226 leukemia
UACC-257 melanoma = test system: UACC-257 melanoma

Measured: TGI

COc1ccc(/C=c2/sc3n(c2=O)NC2(CCC(C)CC2)NN=3)cc1 (configuration not stated)
not listed: A498 renal | HCT-15 colon | HL-60(TB) leukemia | HOP-18 NSCLC | RPMI-8226 leukemia | UACC-257 melanoma
> 100 µM: all other assays above

C=CC1(NS(=O)(=O)c2ccc(C)cc2)CCC(C(C)(C)C)CC1 (configuration not stated)
54.8 µM: RXF 393 renal
54.1 µM: SNB-75 CNS
not listed: EKVX NSCLC | HOP-92 NSCLC | HT29 colon | LOX IMVI melanoma | NCI-H23 lung | OVCAR-5 ovarian | SF-295 CNS | XF 498 CNS
> 100 µM: all other assays above

COc1ccc(/C(Cl)=C(\c2ccc(OCCN(C)C)cc2)c2ccc(OC(=O)C(C)(C)C)cc2)cc1
12.1 µM: M14 melanoma
26.4 µM: KM12 colon
17.5 µM: DMS 273 small cell lung
29.4 µM: SK-MEL-2 melanoma
22.4 µM: HCT-15 colon
19.3 µM: UO-31 renal
27.2 µM: SN12C renal
32.9 µM: IGROV1 ovarian
14.7 µM: MOLT-4 leukemia
29.1 µM: NCI-H23 lung | OVCAR-5 ovarian
25.7 µM: NCI-H226 lung
24.9 µM: CCRF-CEM leukemia
27.8 µM: CAKI-1 renal
29.2 µM: HCC-2998 colon
22.6 µM: 786-0 renal
28.5 µM: OVCAR-3 ovarian
21.9 µM: SNB-75 CNS
33.2 µM: SNB-78 CNS
32.3 µM: TK-10 renal
26.8 µM: COLO 205 colon | SF-539 CNS
14.3 µM: K-562 leukemia
28.2 µM: SF-268 CNS
23.7 µM: XF 498 CNS
28.7 µM: NCI-H460 lung
29.5 µM: ACHN renal | SNB-19 CNS
30.4 µM: OVCAR-8 ovarian
21.1 µM: HL-60(TB) leukemia
27 µM: LXFL 529 NSCLC | SK-MEL-5 melanoma
26.5 µM: U251 CNS
30 µM: MALME-3M melanoma
30.5 µM: HOP-62 NSCLC
28.6 µM: NCI-H522 lung | SW-620 colon
26.6 µM: DLD-1 colon | EKVX NSCLC | M19-MEL melanoma
28.3 µM: A549 NSCLC
12.4 µM: KM20L2 colon
24.6 µM: DMS 114 small cell lung
34 µM: HOP-92 NSCLC
24.4 µM: HCT-116 colon | SK-OV-3 ovarian
26.9 µM: OVCAR-4 ovarian
11.5 µM: HT29 colon
21.7 µM: RXF 393 renal
28 µM: SF-295 CNS | UACC-62 melanoma
21.8 µM: SR leukemia
19.4 µM: LOX IMVI melanoma
30.9 µM: RPMI-8226 leukemia
23.1 µM: SK-MEL-28 melanoma
